Source: PubChem BioAssay (NCI)
Where “and” joins values, the source holds several entries; their conditions need not be identical. Identical values can stand only once.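 Each compound was tested at five concentrations against cells in 96-well plates for 48 hours. GI50: concentration for 50% inhibition of growth. The concentration for full growth arrest is given as TGI.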

What was measured:
Assay in all cases: NCI tumour cell line growth inhibition, 48 h
MOLT-4 leukemia = system: MOLT-4 leukemia
UACC-257 melanoma = system: UACC-257 melanoma
NCI-H460 lung = system: NCI-H460 lung
LOX IMVI melanoma = system: LOX IMVI melanoma
COLO 205 colon = system: COLO 205 colon
P388 leukemia = system: P388 leukemia
OVCAR-4 ovarian = system: OVCAR-4 ovarian
DMS 114 small cell lung = system: DMS 114 small cell lung
NCI-H23 lung = system: NCI-H23 lung
SK-MEL-28 melanoma = system: SK-MEL-28 melanoma
NCI-H522 lung = system: NCI-H522 lung
M14 melanoma = system: M14 melanoma
K-562 leukemia = system: K-562 leukemia
SW-620 colon = system: SW-620 colon
SK-OV-3 ovarian = system: SK-OV-3 ovarian
RXF 393 renal = system: RXF 393 renal
U251 CNS = system: U251 CNS
HCC-2998 colon = system: HCC-2998 colon
IGROV1 ovarian = system: IGROV1 ovarian
UO-31 renal = system: UO-31 renal
DU-145 prostate = system: DU-145 prostate
XF 498 CNS = system: XF 498 CNS
UACC-62 melanoma = system: UACC-62 melanoma
KM20L2 colon = system: KM20L2 colon
SF-295 CNS = system: SF-295 CNS
PC-3 prostate = system: PC-3 prostate
LXFL 529 NSCLC = system: LXFL 529 NSCLC
OVCAR-5 ovarian = system: OVCAR-5 ovarian
SNB-19 CNS = system: SNB-19 CNS
MDA-N = system: MDA-N
SN12C renal = system: SN12C renal
M19-MEL melanoma = system: M19-MEL melanoma
SK-MEL-5 melanoma = system: SK-MEL-5 melanoma
MALME-3M melanoma = system: MALME-3M melanoma
SK-MEL-2 melanoma = system: SK-MEL-2 melanoma
P388/ADR leukemia = system: P388/ADR leukemia
MCF7 breast = system: MCF7 breast
CCRF-CEM leukemia = system: CCRF-CEM leukemia
NCI/ADR-RES ovarian = system: NCI/ADR-RES ovarian
A498 renal = system: A498 renal
HT29 colon = system: HT29 colon
OVCAR-3 ovarian = system: OVCAR-3 ovarian
KM12 colon = system: KM12 colon
EKVX NSCLC = system: EKVX NSCLC
SN12K1 renal = system: SN12K1 renal
BT-549 breast = system: BT-549 breast
SR leukemia = system: SR leukemia
NCI-H226 lung = system: NCI-H226 lung
RPMI-8226 leukemia = system: RPMI-8226 leukemia
SF-268 CNS = system: SF-268 CNS
T-47D breast = system: T-47D breast
ACHN renal = system: ACHN renal
786-0 renal = system: 786-0 renal
DLD-1 colon = system: DLD-1 colon
SF-539 CNS = system: SF-539 CNS
HCT-15 colon = system: HCT-15 colon
MDA-MB-435 = system: MDA-MB-435
HOP-62 NSCLC = system: HOP-62 NSCLC
HCT-116 colon = system: HCT-116 colon
TK-10 renal = system: TK-10 renal
HOP-92 NSCLC = system: HOP-92 NSCLC
SNB-78 CNS = system: SNB-78 CNS
A549 NSCLC = system: A549 NSCLC
MDA-MB-231 breast = system: MDA-MB-231 breast
DMS 273 small cell lung = system: DMS 273 small cell lung
HOP-18 NSCLC = system: HOP-18 NSCLC
OVCAR-8 ovarian = system: OVCAR-8 ovarian
CAKI-1 renal = system: CAKI-1 renal
SNB-75 CNS = system: SNB-75 CNS
HL-60(TB) leukemia = system: HL-60(TB) leukemia

## COc1cc(C2c3cc4c(cc3[C@@H](Nc3ccc(F)cc3)C3COC(=O)[C@H]23)OCO4)cc(OC)c1O (stereo not given in full)
MOLT-4 leukemia
  GI50: 0.0657 µM
  TGI: 0.821 µM and 2.26 µM
UACC-257 melanoma
  TGI: 31.3 µM
NCI-H460 lung
  GI50: 0.124 µM
  TGI: 4.11 µM
LOX IMVI melanoma
  GI50: 0.44 µM
  TGI: 10.5 µM
COLO 205 colon
  TGI: 15.6 µM
P388 leukemia
  TGI: 1.61 µM
OVCAR-4 ovarian
  TGI: 49.2 µM
DMS 114 small cell lung
  GI50: 0.997 µM
  TGI: 9.63 µM
NCI-H23 lung
  GI50: 0.386 µM
  TGI: 7.56 µM
SK-MEL-28 melanoma
  TGI: 48.3 µM
NCI-H522 lung
  GI50: 0.823 µM
  TGI: 9.12 µM
M14 melanoma
  GI50: 0.795 µM
  TGI: 17.4 µM
K-562 leukemia
  TGI: 43 µM
SW-620 colon
  GI50: 0.859 µM
  TGI: 44.8 µM
SK-OV-3 ovarian
  TGI: 21 µM
RXF 393 renal
  TGI: 11.4 µM
U251 CNS
  GI50: 0.451 µM
  TGI: 8.9 µM
HCC-2998 colon
  TGI: 8.96 µM
IGROV1 ovarian
  TGI: 42.2 µM
UO-31 renal
  GI50: 0.753 µM
  TGI: 8.72 µM
DU-145 prostate
  TGI: 8.89 µM
XF 498 CNS
  GI50: 0.718 µM
  TGI: 18.2 µM
UACC-62 melanoma
  GI50: 0.941 µM
  TGI: 7.78 µM
KM20L2 colon
  TGI: 19.8 µM
SF-295 CNS
  GI50: 0.548 µM
  TGI: 7.26 µM
PC-3 prostate
  TGI: 23.4 µM
LXFL 529 NSCLC
  TGI: 46.6 µM
OVCAR-5 ovarian
  TGI: 37 µM
SNB-19 CNS
  GI50: 0.569 µM
  TGI: 33.9 µM
MDA-N
  TGI: > 100 µM
SN12C renal
  GI50: 0.718 µM
  TGI: 9.64 µM
M19-MEL melanoma
  TGI: 42.8 µM
SK-MEL-5 melanoma
  GI50: 0.806 µM
  TGI: 8.56 µM
MALME-3M melanoma
  TGI: 13.4 µM
SK-MEL-2 melanoma
  TGI: 19.2 µM
P388/ADR leukemia
  TGI: 1.63 µM
MCF7 breast
  TGI: > 65.2 µM
CCRF-CEM leukemia
  GI50: 0.201 µM and 0.347 µM
  TGI: 19.6 µM
NCI/ADR-RES ovarian
  TGI: 45.7 µM
A498 renal
  GI50: 0.878 µM
  TGI: 7.84 µM
HT29 colon
  TGI: 18.2 µM
OVCAR-3 ovarian
  TGI: 29.5 µM
KM12 colon
  TGI: 13.5 µM
EKVX NSCLC
  TGI: 12.5 µM
SN12K1 renal
  TGI: 12.2 µM
BT-549 breast
  TGI: 8.39 µM
SR leukemia
  GI50: 0.0567 µM
  TGI: 0.612 µM and 4.27 µM
NCI-H226 lung
  GI50: 0.529 µM
  TGI: 0.985 µM and 5.18 µM
RPMI-8226 leukemia
  GI50: 0.531 µM
  TGI: 17.1 µM
SF-268 CNS
  TGI: 27.7 µM
T-47D breast
  TGI: 61.3 µM
ACHN renal
  GI50: 0.326 µM
  TGI: 3.39 µM
786-0 renal
  GI50: 0.567 µM
  TGI: 5.26 µM
DLD-1 colon
  TGI: 28.5 µM
SF-539 CNS
  GI50: 0.708 µM
  TGI: 6.02 µM
HCT-15 colon
  TGI: 26.1 µM
MDA-MB-435
  TGI: > 100 µM
HOP-62 NSCLC
  GI50: 0.416 µM
  TGI: 3.3 µM
HCT-116 colon
  TGI: 22.3 µM
TK-10 renal
  TGI: 14.8 µM
HOP-92 NSCLC
  TGI: 24.8 µM
SNB-78 CNS
  TGI: 99.2 µM
A549 NSCLC
  GI50: 0.264 µM
  TGI: 5.17 µM
MDA-MB-231 breast
  TGI: 17.4 µM
DMS 273 small cell lung
  GI50: 0.403 µM
  TGI: 6.46 µM
HOP-18 NSCLC
  TGI: 46.8 µM
OVCAR-8 ovarian
  GI50: 0.886 µM
  TGI: 15.6 µM
CAKI-1 renal
  GI50: 0.29 µM
  TGI: 4.68 µM
SNB-75 CNS
  GI50: 0.438 µM
HL-60(TB) leukemia
  GI50: 0.181 µM and 0.631 µM
  TGI: 0.839 µM and 6.02 µM
